Experimental data: ChEMBL document CHEMBL1240417, “QSAR studies of bioactivities of 1-(azacyclyl)-3-arylsulfonyl-1H-pyrrolo[2,3-b]pyridines as 5-HT6 receptor ligands using physicochemical descriptors and MLR and ANN-modeling” (Eur J Med Chem, 2010)

What follows are molecules tested against 5-hydroxytryptamine receptor 6 (Homo sapiens, UniProt P50406) (assay: Binding affinity to 5HT6 receptor).
Chain of 5-hydroxytryptamine receptor 6 (P50406 whole entry): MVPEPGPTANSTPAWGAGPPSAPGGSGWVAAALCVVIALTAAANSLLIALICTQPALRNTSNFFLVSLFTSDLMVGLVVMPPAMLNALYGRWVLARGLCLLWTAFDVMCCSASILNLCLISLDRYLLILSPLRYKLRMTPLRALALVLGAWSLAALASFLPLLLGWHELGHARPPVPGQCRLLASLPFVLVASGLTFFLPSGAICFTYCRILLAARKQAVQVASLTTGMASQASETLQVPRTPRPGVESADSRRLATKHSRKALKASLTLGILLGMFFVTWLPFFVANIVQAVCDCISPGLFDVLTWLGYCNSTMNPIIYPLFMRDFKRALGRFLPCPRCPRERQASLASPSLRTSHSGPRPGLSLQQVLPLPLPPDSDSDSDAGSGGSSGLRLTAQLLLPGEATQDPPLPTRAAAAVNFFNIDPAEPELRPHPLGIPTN
For O=S(=O)(c1cn(C2CCCNC2)c2ncccc12)c1c(Cl)nc2sccn12 (centres undefined), the Ki was 0.708 nM. With CN1CCCC(n2cc(S(=O)(=O)c3c(Cl)nc4sccn34)c3cccnc32)C1 (centres undefined) the Ki was 2 nM. In the case of CCN1CCCC(n2cc(S(=O)(=O)c3c(Cl)nc4sccn34)c3cccnc32)C1 (centres undefined), the Ki is reported as 0.708 nM. In the case of O=S(=O)(c1ccc(Cl)s1)c1cn(C2CCNC2)c2ncccc12 (centres undefined), the Ki is reported as 1 nM. Work on CC(C)N1CCCC(n2cc(S(=O)(=O)c3c(Cl)nc4sccn34)c3cccnc32)C1 (centres undefined) yielded a Ki of 1.7 nM. Molecule O=S(=O)(c1cn(C2CCNC2)c2ncccc12)c1c(Cl)nc2sccn12 (centres undefined) has a Ki of 1 nM. Work on CN1CCC(n2cc(S(=O)(=O)c3c(Cl)nc4sccn34)c3cccnc32)C1 (centres undefined) yielded a Ki of 0.794 nM. Molecule CCN1CCC(n2cc(S(=O)(=O)c3c(Cl)nc4sccn34)c3cccnc32)C1 (centres undefined) has a Ki of 1.41 nM. Molecule CCN1CCCC(n2cc(S(=O)(=O)c3ccc(Cl)cc3)c3cccnc32)C1 (centres undefined) has a Ki of 33.1 nM.
